Data on three compounds can be found in patent US8993309B2, “Predictive marker for topoisomerase I inhibitors” (Boston Medical Center Corporation, priority 2008, dated 2015).

The test system of one test is HIV-1. As to conditions: acute and chronic infections, in vitro; cited from earlier work.
For a further test, the target named is T1, DNA-PK (Homo sapiens, UniProt P78527).
T1 construct: endogenous in cells; host or cells: HeLa
Briefly: CPT induced topoI downregulation in HeLa cells with or without DNA-PK inhibitor (anti-topoI immunoblot). Format: cell-based. The settings on record: CPT treatment plus DNA-PK inhibitor (FIG. 9). The procedure:
Protein levels were determined by immuno blot analysis of cell lysate with anti-β actin.
For orientation: A western blot detects proteins with antibodies after separation by electrophoresis.

The target in test [1] is T2, topoI (Homo sapiens, UniProt P11387).
T2 construct: endogenous in cells
T2 sequence (P11387 1-765): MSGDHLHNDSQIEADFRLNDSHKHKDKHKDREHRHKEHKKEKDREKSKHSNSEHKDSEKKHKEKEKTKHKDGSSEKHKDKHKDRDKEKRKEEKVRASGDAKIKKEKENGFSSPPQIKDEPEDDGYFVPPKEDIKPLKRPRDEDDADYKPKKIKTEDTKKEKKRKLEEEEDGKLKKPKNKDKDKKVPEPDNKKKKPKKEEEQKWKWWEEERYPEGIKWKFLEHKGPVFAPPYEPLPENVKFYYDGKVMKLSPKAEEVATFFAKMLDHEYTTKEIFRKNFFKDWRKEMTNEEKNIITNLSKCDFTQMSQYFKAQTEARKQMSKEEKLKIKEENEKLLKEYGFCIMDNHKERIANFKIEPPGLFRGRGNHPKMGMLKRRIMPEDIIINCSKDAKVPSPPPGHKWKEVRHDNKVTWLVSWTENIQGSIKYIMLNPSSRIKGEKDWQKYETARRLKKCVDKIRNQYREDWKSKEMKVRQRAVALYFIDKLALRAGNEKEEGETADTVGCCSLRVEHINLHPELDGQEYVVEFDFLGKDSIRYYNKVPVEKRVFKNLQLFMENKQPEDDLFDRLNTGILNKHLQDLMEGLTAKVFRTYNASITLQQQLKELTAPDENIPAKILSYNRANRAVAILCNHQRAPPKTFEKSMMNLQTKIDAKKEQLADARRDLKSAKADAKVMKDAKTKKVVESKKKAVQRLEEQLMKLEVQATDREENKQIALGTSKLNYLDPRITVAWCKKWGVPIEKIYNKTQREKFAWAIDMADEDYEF
Nature of the test: topoI down-regulation in BRCA1-silenced cells. As to conditions: BRCA1-silenced Hela cells. Format: cell-based.

For test [2], the target named is T3, topoI (Mus musculus, UniProt Q04750).
T3 construct: endogenous in cells; host or cells: ScH8 (DNA-PK +/+) and ScSv3 (DNA-PK -/-) mouse embryo fibroblasts
T3 sequence (Q04750 1-767): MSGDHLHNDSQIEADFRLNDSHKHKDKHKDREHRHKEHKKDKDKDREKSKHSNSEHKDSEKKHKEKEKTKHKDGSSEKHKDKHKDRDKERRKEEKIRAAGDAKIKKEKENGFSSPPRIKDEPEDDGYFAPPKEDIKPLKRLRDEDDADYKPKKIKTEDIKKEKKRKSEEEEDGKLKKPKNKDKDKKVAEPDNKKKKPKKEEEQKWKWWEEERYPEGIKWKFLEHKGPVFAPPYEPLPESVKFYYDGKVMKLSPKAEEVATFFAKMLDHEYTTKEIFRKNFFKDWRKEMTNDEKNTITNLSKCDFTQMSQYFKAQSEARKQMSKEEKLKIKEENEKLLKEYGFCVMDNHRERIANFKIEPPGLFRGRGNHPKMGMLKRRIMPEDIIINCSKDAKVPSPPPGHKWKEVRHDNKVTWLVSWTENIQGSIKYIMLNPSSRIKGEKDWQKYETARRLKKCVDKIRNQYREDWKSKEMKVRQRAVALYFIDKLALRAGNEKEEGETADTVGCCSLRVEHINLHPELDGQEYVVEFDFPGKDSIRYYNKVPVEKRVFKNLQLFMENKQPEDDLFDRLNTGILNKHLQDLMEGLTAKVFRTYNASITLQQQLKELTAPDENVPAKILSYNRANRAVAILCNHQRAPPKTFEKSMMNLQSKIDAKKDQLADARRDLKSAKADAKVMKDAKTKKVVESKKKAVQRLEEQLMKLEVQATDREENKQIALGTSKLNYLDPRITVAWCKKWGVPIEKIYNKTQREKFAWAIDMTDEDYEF
Nature of the test: topoI down-regulation in response to CPT in DNA-PK deficient and efficient cells (anti-topoI immunoblot). Format: cell-based. The protocol: (§1) Protein levels in FIG. 8A were determined by immuno blot analysis of cell lysate with anti-βactin.
(§2) Tissue Culture: Human cervical carcinoma (HeLa) cells, MCF-7 breast cancer cells, BT-474 breast cancer cells and Mouse embryo fibroblasts (MEF) reconstituted for stable expression of DNA-PK (ScH8) and […] MEF (ScSv3, DNA-PK −/−) were grown and maintained in Dulbecco's Modification of Eagle's Medium containing 10% fetal bovine serum, 2 mM L-Glutamine 100 units/mL of Streptomycin and 100 units/mL of Penicillin.
Cell Synchronization and Drug Treatment. MEF cells were phase-synchronized by serum starvation. Cells were incubated for 30 hours in Dulbecco's Modification of Eagle Medium containing 0.1% fetal bovine serum followed by 16 hour incubation in Medium containing 10% fetal bovine serum. Topo I inhibitor treatment was performed using a 25 μM concentration of Irinotecan (Sigma). Transient transfection of cell lines for BRCA1 and BARD1 expression was performed using the Geneporter 2 transfection kit (GenLantis).
Immunoprecipitation and immunoblot analysis: Cell lysates were prepared for immunoprecipitation and soluble proteins were incubated with anti-BRCA1 or anti-topoI (Topogen, Inc.). The immunoprecipitates were subjected to immunoblotting with anti-BRCA1 or anti-topoI. Antigen-antibody complexes were visualized by enhanced chemiluminescence (ECL detection system, GE, Piscataway, N.J.).

For a further test, the system named is leukemia L-1210. As to conditions: experimentally transplanted leukemia L-1210 in mice; cited from earlier work.
A further test relates to GFP-topoI and BRCA1. Briefly: co-immunostaining of GFP-topoI and BRCA1 after CPT treatment. Format: cell-based. The settings on record: in response to treatment with CPT.
Test [3] concerns biosynthesis of nucleic acids. The settings on record: cited from earlier work.
In the next test the test system is DNA-PK -/- cells. Briefly: cell death of DNA-PK -/- and DNA-PK +/+ cells in response to CPT. Format: cell-based, Mouse. The settings on record: DNA-PK -/- cells compared to DNA-PK +/+ cells, in response to CPT (FIG. 8C). The procedure: as §1, §2
In a further test the test system is Walker 256 tumor. The settings on record: experimentally transplanted Walker 256 tumor in rats; cited from earlier work.

With `CC[C@@]1(O)C(=O)OCc2c1cc1n(c2=O)Cc2cc3c(CN(C)C)c(O)ccc3nc2-1` [Topotecan], in the test with HIV-1, the “inhibition of HIV-1 infections” value is “inhibit both acute and chronic HIV-1 infections”.
Regarding `O=c1cc(N2CCOCC2)oc2c1ccc1ccccc12` [NU7026], on DNA-PK, the “effect on CPT induced topoI downregulation by UPP” value is “obliterates CTP induced topoI downregulation”.
Take `CC[C@@]1(O)C(=O)OCc2c1cc1n(c2=O)Cc2cc3ccccc3nc2-1` [CPT, camptothecin]: the “rate of topoI down-regulation” value on topoI [1] was “decrease in the rate of topoI down-regulation”. The “rate of topoI down-regulation in response to CPT” value at topoI [2] (DNA-PK +/+ cells compared with DNA-PK deficient cells) is “significantly higher rate of topoI down-regulation in DNA-PK +/+ cells”. In addition, the “degradation of topoI” value on topoI [2] (ScH8 cells (DNA-PK +/+) treated with CPT, six hours) is given as “complete degradation”. Also, the topoI remained intact entry on topoI [2] (ScSV3 cells (DNA-PK -/-) treated with CPT, six hours) is given as “more than 50%”. The anti-tumor activity entry in the test with leukemia L-1210 and in the test on Walker 256 tumor was “potent anti-tumor activity” throughout. Further, the “localization of GFP-topoI and BRCA1” value with GFP-topoI and BRCA1 is “colocalized in DNA repair foci”. Also, in test [3], the “inhibitory activity toward the biosynthesis of nucleic acids” value is “strong inhibitory activity”. Moreover, the “percentage of cell death” value in the test on DNA-PK -/- cells is on record as “higher percentage of cell death”.
